In assay [1] the target is CpomOrco (Cydia pomonella, UniProt H9A5M2). Put plainly: Calcium imaging (Fluo-4) of HEK293A cells transfected with wild-type CpomOrco, VUAA1 stimulation. Conditions: for Fluo4 + cells, %: of bright field cells; for EC50 / Hill coefficient / maximum response (Hill fit of calcium response amplitudes): HEK293A, CpomOrco. It is filed as cell-based. The protocol: (§1) HEK293 cells lines (HEK293A/HEK293T) were grown in HEK cell media [Dulbecco's modified Eagle's medium containing 10% fetal bovine serum (MP Biomedicals, Solon, OH, USA), 2.0 mM L-glutamine, and 100 µg/mL penicillin/streptomycin (Invitrogen)] at 37 °C and 5% CO2. To test transient expression of wild type CpomOrco and CpomOrco^Q417H variant for calcium imaging and patch-clamp recording, 35-mm petri dishes containing semi-confluent HEK293A cells were transiently transfected. Cells were transfected with 0.6 µg of pcDNA40-DEST carrying the coding sequence of the CpomOrco variant (depending on the experiments). To report expression for calcium imaging experiments, 0.6 µg of a separate plasmid DNA [pEBFP2-Nuc, a gift from Robert Campbell (Addgene plasmid # 1489352)] carrying the coding sequence for a blue fluorescent protein (EBFP) was co-transfected. To report expression in patch-clamp recordings, 1.0 µg of a separate plasmid DNA (pXOOM, Clontech, Mountain View, CA, USA) carrying the coding sequence for a green fluorescent protein (GFP) was co-transfected. Expressions of fluorescent reporter genes were under the regulation of the same promoter for Cpom-genes (CMV). For specific experiments, co-transfections were conducted combining an additional 1.2 µg of pcDNA40-DEST/CpomOR3 or pcDNA40-DEST/CpomOR6a, as we previously described. Co-transfections with CpomOR3 were performed for dose–response experiments to pear ester: CpomOR3 was co-expressed with CpomOrco variants by the use of HEK293T (Fig. 3b); given the reported functional co-expression data of the CpomOrco + OR3 heteromers by the use of these specific cells. In brief, transfection DNAs were dissolved in 100 µL sterile DMEM, mixed with 3.0 µL Calfectin (SignaGen, Rockville, MD, USA) following the recommended protocol. Transfections were conducted overnight for up to 18 h, HEK cell media was replaced with 2.0 mL fresh media to incubate cells at 37 °C for up to 6–8 h, at which point part of the cell culture was spread in the middle of a 35-mm plate as individual cells or small clusters and rinsed at the sides with 2.0 mL fresh HEK media. After splitting, cells were allowed to recover for at least 1 day prior to calcium imaging.
Chain of CpomOrco (H9A5M2 entry or part of it): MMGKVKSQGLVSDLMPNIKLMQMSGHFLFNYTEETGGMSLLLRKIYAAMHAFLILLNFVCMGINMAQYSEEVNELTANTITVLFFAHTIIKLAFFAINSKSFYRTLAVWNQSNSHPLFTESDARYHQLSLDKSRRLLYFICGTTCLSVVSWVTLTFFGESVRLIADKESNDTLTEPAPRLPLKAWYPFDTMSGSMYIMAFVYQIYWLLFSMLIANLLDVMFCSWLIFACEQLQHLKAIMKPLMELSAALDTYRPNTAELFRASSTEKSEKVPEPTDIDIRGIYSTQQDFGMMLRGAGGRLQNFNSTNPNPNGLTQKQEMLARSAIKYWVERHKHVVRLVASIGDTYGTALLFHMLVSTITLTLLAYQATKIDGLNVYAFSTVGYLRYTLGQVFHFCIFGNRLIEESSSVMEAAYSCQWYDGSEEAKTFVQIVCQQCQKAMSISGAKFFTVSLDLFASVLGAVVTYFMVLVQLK
Activation of HEK293 cells transfected with CpomOrco variants was tested using the same procedures we previously described. Petri dishes were incubated for 1 h at room temperature in 1.0 mL HEK Ca^++ Ringer (mM: 140 NaCl, 5.0 KCl, 2.0 CaCl2, 10 HEPES, pH 7.4) containing the fluorescent calcium indicator Fluo-4AM (Invitrogen) at 5–15 µM prepared with 0.2–0.06% Pluronic F-127 (Invitrogen). To monitor intracellular pH, HEK293A cells were loaded with 10.0 µL BCECF dye (Anaspec, Fremont, CA).
As reported in Cattaneo et al.[14], the buffer was removed after incubation, cells were rinsed with 4.0 mL fresh HEK Ca^++ Ringer and placed on the stage of an inverted microscope (Olympus IX-71, Olympus Corp., Tokyo, Japan) equipped with a cooled CCD camera (ORCA R2, Hamamatsu, Hamamatsu City, Japan). Cells were continuously superfused with Ca^++ Ringer using two gravity fed perfusion contours. The […] contour washing the cells (~ 250 µL/min) was switched rapidly to the stimulus contour using a multi-channel rapid solution changer (RSC-160, Bio-Logic, Claix, France) under the software control of Clampex 9 (Molecular Devices, Sunnyvale, CA, USA).
Fluorescence imaging was performed using settings optimized for Imaging Workbench 6 software (INDEC BioSystems, Santa Clara, CA, USA)[14]. The non-responsive cells were not included in these analyses. Each cell was assigned a region of interest (ROI) and changes in fluorescence intensity within each ROI were measured and expressed as the fractional change in fluorescence intensity (dF). Stored time series image stacks were analysed off-line using Imaging Workbench 6, Clampfit 10.5 (Molecular Devices) and SigmaPlot 11 (Systat Software Inc., San Jose, CA, USA). Dose–response curves were approximated using Hill equation. […]

Assay [2] relates to CpomOrco^Q417H+OR6a. Briefly: VUAA1 responsiveness (Fluo4 +) of HEK293A cells co-transfected with CpomOrco^Q417H and CpomOR6a. It is filed as cell-based, Cydia pomonella. Conditions: for Fluo4 + cells, %: of bright field cells. The protocol: (§2) HEK293 cells lines (HEK293A/HEK293T) were grown in HEK cell media [Dulbecco's modified Eagle's medium containing 10% fetal bovine serum (MP Biomedicals, Solon, OH, USA), 2.0 mM L-glutamine, and 100 µg/mL penicillin/streptomycin (Invitrogen)] at 37 °C and 5% CO2. To test transient expression of wild type CpomOrco and CpomOrco^Q417H variant for calcium imaging and patch-clamp recording, 35-mm petri dishes containing semi-confluent HEK293A cells were transiently transfected. Cells were transfected with 0.6 µg of pcDNA40-DEST carrying the coding sequence of the CpomOrco variant (depending on the experiments). To report expression for calcium imaging experiments, 0.6 µg of a separate plasmid DNA [pEBFP2-Nuc, a gift from Robert Campbell (Addgene plasmid # 1489352)] carrying the coding sequence for a blue fluorescent protein (EBFP) was co-transfected. To report expression in patch-clamp recordings, 1.0 µg of a separate plasmid DNA (pXOOM, Clontech, Mountain View, CA, USA) carrying the coding sequence for a green fluorescent protein (GFP) was co-transfected. Expressions of fluorescent reporter genes were under the regulation of the same promoter for Cpom-genes (CMV). For specific experiments, co-transfections were conducted combining an additional 1.2 µg of pcDNA40-DEST/CpomOR3 or pcDNA40-DEST/CpomOR6a, as we previously described. […]
(§3) Fluorescence imaging was performed using settings optimized for Imaging Workbench 6 software (INDEC BioSystems, Santa Clara, CA, USA)[14]. […] Each cell was assigned a region of interest (ROI) and changes in fluorescence intensity within each ROI were measured and expressed as the fractional change in fluorescence intensity (dF). Stored time series image stacks were analysed off-line using Imaging Workbench 6, Clampfit 10.5 (Molecular Devices) and SigmaPlot 11 (Systat Software Inc., San Jose, CA, USA). […]

The target in assay [3] is CpomOrco^Q417H (Cydia pomonella, UniProt H9A5M2, Q417H). Put plainly: Whole-cell voltage-clamp recordings of HEK293A cells transfected with CpomOrco^Q417H, VUAA1. The class given is cell-based. The following applies: for EC50: EC50 (K1/2). As for the experimental part:
as §1
Electrophysiological experiments were performed according with the same procedures we previously described. Patch pipettes were fabricated from borosilicate capillary glass (BF150-86–10, Sutter Instrument, CA, USA) using a Flaming-Brown micropipette puller (P-87, Sutter Instrument). Only patches with initial cell-attached seal resistance estimated higher than 1.0 GOhms were used in the experiments. Intracellular (pipette) solution for whole-cell experiments was KCl 140 mM, EGTA 1 mM, Hepes 5 mM, MES 5 mM, pH 8.0 or pH 5.5 (depending on the experiment) adjusted with either NaOH or HCl, standard Na^+ 140 mM. bath solution was usually NaCl 140 mM, EGTA 0.1 mM, Hepes 10 mM, pH 7.4 (adjusted with Tris-base or NaOH). VUAA1 doses (0–1000 µM) were added to the extracellular test solutions.
As described in methods of Cattaneo et al.[14], GFP positive HEK293A cells were visualized using either an Axiovert 100 inverted microscope (Carl Zeiss, Inc., München, Germany) equipped with a mercury vapour compressed-arc lamp (HBO100) coupled to widefield fluorescence filter set (1114–459, Carl Zeiss, Inc.) or Olympus IX-71 inverted microscope described above (Olympus Corp.). The Orco channel-mediated currents were investigated using whole-cell patch-clamp recordings. The currents were measured with a 200B patch-clamp amplifier (Molecular Devices) and a digital interface (Digidata 1320A, Molecular Devices), low pass filtered at 5.0 kHz, sampled at 1–2 kHz. Analysis of the data was carried out using pCLAMP 9.2/10.5 software (Molecular Devices) and SigmaPlot 11 (Systat Software Inc). […]

The test system of assay [4] is CpomOrco+OR6a. Put plainly: VUAA1 responsiveness (Fluo4 +) of HEK293A cells co-transfected with CpomOrco and CpomOR6a. The class given is cell-based, Cydia pomonella. The following applies: for Fluo4 + cells, %: of bright field cells. As for the experimental part: as §2, §3
Setting [5] is: after 30 min incubation at low pHe = 4.7.
The mark [6] stands for this setting: intracellular pH = 5.5, extracellular pH 7.4, -50 mV.
Where [7] appears, read: intracellular pH = 8.0, extracellular pH 7.4, -50 mV.

Data on 1 compound can be found in paper PMC7887336, “Altered functional properties of the codling moth Orco mutagenized in the intracellular loop-3” (Scientific Reports, 2021).

“And” between values parts separate entries of the source, which are not always exact repeats. Equal values may be shown once.

Chain of CpomOrco^Q417H (H9A5M2 entry or part of it Q417H): as the sequence (H9A5M2 entry or part of it) above, with Q417H counted along it

As for `CCc1ccc(NC(=O)CSc2nnc(-c3cccnc3)n2CC)cc1` [VUAA1, acetamide,N-(4-ethylphenyl)-2-[[4-ethyl-5-(3-pyridinyl)-4H-1,2,4-triazol-3-yl]thio]-], the “Fluo4 + cells, %” value is given as 30,99% in assay [1] (800 µM VUAA1, Experiment 1, CpomOrco); 35,06% in assay [1] (800 µM VUAA1, Experiment 2, CpomOrco); 8,41% in assay [2] (800 µM VUAA1, Experiment 3, CpomOrcoQ417H+OR6a); 10,33% in assay [2] (800 µM VUAA1, Experiment 4, CpomOrcoQ417H+OR6a); 48,34% in assay [4] (800 µM VUAA1, Experiment 3, CpomOrco+OR6a); 49,71% in assay [4] (800 µM VUAA1, Experiment 4, CpomOrco+OR6a). The “percentage of cells sensitive to VUAA1 (relative to total number of visible cells)” value in assay [1] (800 µM VUAA1, HEK293A transfected with CpomOrco and EBFP, range of two experiments) is reported as 30.99–35.06%. Also, the EC50 in assay [1] (setting [5]) is ~260 µM; in assay [1] (control pH conditions (pH 7.4), Hill fit), ~157 µM; in assay [3] (setting [6]), ~550 µM; in assay [3] (setting [7]), ~615 µM. Further, the Hill coefficient in assay [1] (setting [5]) is recorded as ~ 2.5 ± 4.3; in assay [1] (control pH conditions (pH 7.4)), ~ 2.4 ± 0.1. Moreover, the “maximum response (Hill fit of calcium response amplitudes)” value in assay [1] (after 30 min incubation at low pHe = 4.7, n = 84, constraints applied to fit) was ~ 1.3 ± 0.7 ∆F and 1.3 ∆F; in assay [1] (control pH conditions (pH 7.4), N = 123 cells) it was ~ 6.3 ∆F and ~ 6.3 ± 0.1 ∆F and 6.3 ∆F. Further, in assay [2] (800 µM VUAA1, HEK293A co-transfected with CpomOrco^Q417H, CpomOR6a and EBFP, range of two experiments), the “percentage of VUAA1 sensitive cells” value was 8.41–10.33%. For the same compound, the “h (Hill equation)” value is on record as ~ 4 ± 1.4 in assay [3] (intracellular pH = 5.5) and ~ 5 ± 1.9 in assay [3] (intracellular pH = 8.0). Also, the “number of cells sensitive to VUAA1” value in assay [3] (intracellular pH = 5.5, GFP positive cells tested) was 6 out of 9; in assay [3] (intracellular pH = 8.0, GFP positive cells tested) it was 11 out of 17. Moreover, the “Imax (whole-cell current amplitude, Hill fit)” value in assay [3] (setting [6]) is ~216 pA and ~ 216 ± 23 pA; in assay [3] (setting [7]) it was ~ 332 pA and ~ 332 ± 44 pA. In assay [4] (800 µM VUAA1, HEK293A co-transfected with CpomOrco, CpomOR6a and EBFP, range of two experiments), the “percentage of VUAA-responsive cells” value is recorded as 48.34–49.71%.

For orientation: EC50 means the concentration at which the effect is half-maximal.
